Assay results reported in article PMC11939470, “The Cyclic Antimicrobial Peptide C-LR18 Has Enhanced Antibacterial Activity, Improved Stability, and a Longer Half-Life Compared to the Original Peptide” (Antibiotics, 2025).

Columns and labels:
E. coli Y1 [1] = assay: Therapeutic experiment, survival of E. coli-infected mice; format: in vivo, KM mice; settings: polymyxin B 5.0 mg/kg ip 1 h after ip E. coli Y1 challenge, 10 mice per group
Experimental: The mice (female, 18–21 g) were randomly divided into 6 groups, with PBS dilution as the control group. A total of 1–5 groups were injected intraperitoneally with 0.5 mL of E. coli solution containing […] CFU/mL, respectively. After inoculation, the mice were observed continuously for 5 days, and the mortality rate was recorded. The minimum dose (LD 100) at which all mice die within 5 days was used as the optimal dose for the bacterial attack in this experiment.
In order to further evaluate the therapeutic potential of antimicrobial peptide C-LR18, a mouse model infected with E. coli was constructed in this study. The Km mice (female, 18–21 g) were maintained at constant room temperature [(25 ± 2) °C] with free access to food and water for 48 h. […] A total of 0.5 mL of E. coli Y1 suspension (10^9 CFU/m L) was intraperitoneally injected into each group of mice. One hour after challenge, different doses of C-LR18 (2.5 mg/kg, 5 mg/kg, and 7.5 mg/kg) and polymyxin B (5 mg/kg) were intraperitoneally injected into mice. The group injected with the same dose of physiological water was the control group.

E. coli Y1 [2] = assay: Bacterial load in liver and spleen of mice; format: in vivo; settings: polymyxin B 1 mg/kg, positive control, one mouse every 24 h
Experimental: One hour after the mice were intraperitoneally injected with 0.5 mL of E. coli Y1 suspension (10^9 CFU/mL), C-LR18 was injected into the mice at a dose of 7.5 mg/kg through the tail vein. The normal saline group was used as negative control, and the polymyxin B group (1 mg/kg) was used as positive control. After that, one mouse was taken every 24 h, sacrificed via cervical dislocation, and the liver and spleen were removed, weighed, and added to PBS buffer for grinding at 3000 r/min for 2 min. The abrasive solution was diluted with sterile PBS (1:10,000), and 0.1 mL diluent was evenly coated in solid MH medium and cultured at 37 °C overnight. Colony counting was performed on the samples, and the bacterial colonization amount in liver and spleen was calculated.

[3] = cited from earlier work
Excerpt: An in vivo toxicity test is an essential step in the safety evaluation of exogenous drugs. The purpose is to observe the systemic toxicity of drugs on animals, including whether there are adverse physiological reactions, pathological changes in organs and tissues of the whole body, and the mortality of animals. Therefore, before the treatment of C-LR18 on E. coli-infected mice, we tested the acute toxicity of C-LR18 in mice.

E. coli ATCC25922 = assay: Membrane permeability assay (propidium iodide uptake, flow cytometry); format: cell-based; settings: melittin 4 μM, positive control, 30 min 37 °C
Experimental: The effect of C-LR18 on bacterial membrane permeability was measured using the propidium iodide (PI) uptake assay described in [22]. E. coli ATCC25922 in logarithmic growth phase were adjusted to 1 × 10^6 CFU/mL. C-LR18 was added with the final concentration of 4 μM. The mixtures were incubated for 30 min at 37 °C. […] After eliminating unbound dye by washing twice with PBS, the bacterial cells were detected using a flow cytometer (Ex = 535 nm/Em = 615 nm). The results were analyzed using FlowJo 6.2.1 and GraphPad Prism 5 software.

| Compound | survival rate of mice (E. coli Y1 [1]) [%] | bacterial colonization in liver and spleen (E. coli Y1 [2]) | LD50 [3] [mg/kg] | PI fluorescence of treated cells (PI-A+) (E. coli ATCC25922) [%] |
| --- | --- | --- | --- | --- |
| polymyxin B [reference compound] | 50 | significantly less than that in the negative control group | 6.52 | – |
| CC[C@H](C)[C@H](NC(=O)CN)C(=O)NCC(=O)N[C@@H](C)C(=O)N[C@H](C(=O)N[C@@H](CC(C)C)C(=O)N[C@@H](CCCCN)C(=O)N[C@H](C(=O)N[C@@H](CC(C)C)C(=O)N[C@H](C(=O)N[C@H](C(=O)NCC(=O)N[C@@H](CC(C)C)C(=O)N1CCC[C@H]1C(=O)N[C@@H](C)C(=O)N[C@@H](CC(C)C)C(=O)N[C@H](C(=O)N[C@@H](CO)C(=O)N[C@@H](Cc1c[nH]c2ccccc12)C(=O)N[C@H](C(=O)N[C@@H](CCCCN)C(=O)N[C@@H](CCCNC(=N)N)C(=O)N[C@@H](CCCCN)C(=O)N[C@@H](CCCNC(=N)N)C(=O)N[C@@H](CCC(N)=O)C(=O)N[C@@H](CCC(N)=O)C(N)=O)[C@@H](C)CC)[C@@H](C)CC)[C@@H](C)O)[C@@H](C)O)C(C)C)C(C)C [Melittin, reference compound] | – | – | 4.98 | 83.6 |
